Experimental data from patent US20250042903A1, “TRIAZINE INHIBITORS OF CYCLIN-DEPENDENT KINASES” (H. LEE MOFFITT CANCER CENTER AND RESEARCH INSTITUTE, INC., priority 2021, published 2025).

How the values were obtained:
[1] = target: cyclin-dependent kinase 12 (Homo sapiens (Human), UniProt Q9NYV4); test: Inhibition of cyclin-dependent kinase 12; type: biochemical; details: read-out: CDK12 inhibition, IC50
Text: (§1) The inhibitory and antiproliferative activities of selected compounds disclosed herein against cyclin-dependent kinase 12 were investigated.

MDA-MB-231 = test: Antiproliferative activity in MDA-MB-231; type: cell-based; details: Homo sapiens
Text: as §1

Chain of cyclin-dependent kinase 12 (Q9NYV4 whole entry): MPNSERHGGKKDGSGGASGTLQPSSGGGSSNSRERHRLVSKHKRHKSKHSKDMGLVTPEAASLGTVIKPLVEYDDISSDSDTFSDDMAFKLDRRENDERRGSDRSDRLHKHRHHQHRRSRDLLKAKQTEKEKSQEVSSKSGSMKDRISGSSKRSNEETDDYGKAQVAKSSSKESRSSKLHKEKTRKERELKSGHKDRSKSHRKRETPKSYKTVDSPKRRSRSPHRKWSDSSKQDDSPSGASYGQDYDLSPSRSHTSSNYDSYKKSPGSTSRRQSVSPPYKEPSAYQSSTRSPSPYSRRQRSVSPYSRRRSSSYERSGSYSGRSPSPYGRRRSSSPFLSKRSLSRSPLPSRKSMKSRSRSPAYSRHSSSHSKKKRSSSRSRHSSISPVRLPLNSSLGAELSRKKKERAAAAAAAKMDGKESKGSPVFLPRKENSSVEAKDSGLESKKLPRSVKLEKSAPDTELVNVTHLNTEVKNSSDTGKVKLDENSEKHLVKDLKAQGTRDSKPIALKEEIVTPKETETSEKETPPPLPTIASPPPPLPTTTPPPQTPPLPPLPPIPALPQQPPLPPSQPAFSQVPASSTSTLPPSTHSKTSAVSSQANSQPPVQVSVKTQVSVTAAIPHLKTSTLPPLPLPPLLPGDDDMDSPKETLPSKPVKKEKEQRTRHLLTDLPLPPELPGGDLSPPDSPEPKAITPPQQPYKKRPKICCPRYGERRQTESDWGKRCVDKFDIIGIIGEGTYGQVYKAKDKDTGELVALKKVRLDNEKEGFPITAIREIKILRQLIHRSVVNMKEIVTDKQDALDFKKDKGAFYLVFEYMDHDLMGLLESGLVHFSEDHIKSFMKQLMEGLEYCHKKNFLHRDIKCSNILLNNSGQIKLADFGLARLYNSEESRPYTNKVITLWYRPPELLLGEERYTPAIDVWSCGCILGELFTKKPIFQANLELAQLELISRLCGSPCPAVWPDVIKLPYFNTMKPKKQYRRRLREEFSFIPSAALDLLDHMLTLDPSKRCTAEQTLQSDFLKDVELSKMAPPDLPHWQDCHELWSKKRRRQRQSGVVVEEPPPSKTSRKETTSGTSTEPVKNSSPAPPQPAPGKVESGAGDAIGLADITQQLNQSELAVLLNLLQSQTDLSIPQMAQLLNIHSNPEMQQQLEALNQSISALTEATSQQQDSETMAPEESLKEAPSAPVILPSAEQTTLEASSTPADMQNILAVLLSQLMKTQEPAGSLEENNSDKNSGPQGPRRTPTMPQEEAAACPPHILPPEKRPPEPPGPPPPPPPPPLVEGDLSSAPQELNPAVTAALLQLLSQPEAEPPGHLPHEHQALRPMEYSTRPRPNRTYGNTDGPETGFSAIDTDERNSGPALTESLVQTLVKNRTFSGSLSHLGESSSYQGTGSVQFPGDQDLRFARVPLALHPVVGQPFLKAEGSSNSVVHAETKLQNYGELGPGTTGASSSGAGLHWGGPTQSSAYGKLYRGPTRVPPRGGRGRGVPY
Chain of cyclin-dependent kinase 12 (O75909 whole entry partner): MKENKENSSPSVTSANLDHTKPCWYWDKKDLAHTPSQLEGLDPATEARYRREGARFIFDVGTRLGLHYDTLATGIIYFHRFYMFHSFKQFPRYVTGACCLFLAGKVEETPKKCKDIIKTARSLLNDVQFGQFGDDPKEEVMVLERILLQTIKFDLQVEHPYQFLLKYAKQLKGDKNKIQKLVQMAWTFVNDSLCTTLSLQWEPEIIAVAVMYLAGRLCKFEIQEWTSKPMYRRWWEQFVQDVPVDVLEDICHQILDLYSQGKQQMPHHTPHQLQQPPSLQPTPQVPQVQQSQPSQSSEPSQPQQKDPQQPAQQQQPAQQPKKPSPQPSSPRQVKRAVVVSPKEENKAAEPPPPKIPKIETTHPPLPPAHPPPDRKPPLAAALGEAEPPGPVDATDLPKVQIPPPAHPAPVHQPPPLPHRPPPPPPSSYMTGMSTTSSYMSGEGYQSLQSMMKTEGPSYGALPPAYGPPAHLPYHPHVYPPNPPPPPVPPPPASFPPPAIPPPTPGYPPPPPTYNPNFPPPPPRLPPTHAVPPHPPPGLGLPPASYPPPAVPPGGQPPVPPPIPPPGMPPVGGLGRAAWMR

Row | SMILES | IC50 [1] | GI50 (MDA-MB-231)
1 | FC(F)n1cc(-c2cnn3c(NCc4nc5cc(Cl)c(Cl)cc5[nH]4)nc(N4CCC(F)(F)CC4)nc23)cn1 [Compound 3, N-((5,6-dichloro-1H-benzo[d]imidazol-2-yl)methyl)-8-(1-(difluoromethyl)-1H-pyrazol-4-yl)-2-(4,4-difluoropiperidin-1-yl)pyrazolo[1,5-a][1,3,5]triazin-4-amine] | > 10000 nM | 710 nM
2 | Clc1cc2nc(CNc3nc(N4CCOCC4)nc4c(-c5ccsc5)cnn34)[nH]c2cc1Cl [Compound 5, N-((5,6-dichloro-1H-benzo[d]imidazol-2-yl)methyl)-2-morpholino-8-(thiophen-3-yl)pyrazolo[1,5-a][1,3,5]triazin-4-amine] | 2420 nM | 764 nM
3 | FC(F)n1cc(-c2cnn3c(NCc4nc5cccc(Cl)c5[nH]4)nc(N4CCOCC4)nc23)cn1 [Compound 6, N-((7-chloro-1H-benzo[d]imidazol-2-yl)methyl)-8-(1-(difluoromethyl)-1H-pyrazol-4-yl)-2-morpholinopyrazolo[1,5-a][1,3,5]triazin-4-amine] | 65 nM | 62 nM
4 | FC(F)n1cc(-c2cnn3c(NCc4nc5cccc(Cl)c5[nH]4)nc(N4CCC(F)(F)CC4)nc23)cn1 [Compound 7, N-((7-chloro-1H-benzo[d]imidazol-2-yl)methyl)-8-(1-(difluoromethyl)-1H-pyrazol-4-yl)-2-(4,4-difluoropiperidin-1-yl)pyrazolo[1,5-a][1,3,5]triazin-4-amine] | 552 nM | 980 nM
5 | Cn1cc(-c2cnn3c(NCc4nc5cccc(Cl)c5[nH]4)nc(N4CCOCC4)nc23)cn1 [Compound 12, N-((7-chloro-1H-benzo[d]imidazol-2-yl)methyl)-8-(1-methyl-1H-pyrazol-4-yl)-2-morpholinopyrazolo[1,5-a][1,3,5]triazin-4-amine] | 289 nM | 1110 nM
6 | Cn1cc(-c2cnn3c(NCc4nc5cccc(Cl)c5[nH]4)nc(N4CCC(F)(F)CC4)nc23)cn1 [Compound 13, N-((7-chloro-1H-benzo[d]imidazol-2-yl)methyl)-2-(4,4-difluoropiperidin-1-yl)-8-(1-methyl-1H-pyrazol-4-yl)pyrazolo[1,5-a][1,3,5]triazin-4-amine] | 1280 nM | 3770 nM

More lines, in order of falling IC50 [1], values ahead:

Row | IC50 [1] | GI50 (MDA-MB-231) | SMILES
7 | 4050 nM | 384 nM | OC[C@@H]1COCCN1c1nc(NCc2nc3cc(Cl)c(Cl)cc3[nH]2)n2ncc(-c3cnn(C(F)F)c3)c2n1 [Compound 4, (R)-(4-(4-(((5,6-dichloro-1H-benzo[d]imidazol-2-yl)methyl)amino)-8-(1-(difluoromethyl)-1H-pyrazol-4-yl)pyrazolo[1,5-a][1,3,5]triazin-2-yl)morpholin-3-yl)methanol]
8 | 1560 nM | 835 nM | CN1CCN(c2nc(NCc3nc4cccc(Cl)c4[nH]3)n3ncc(-c4ccsc4)c3n2)CC1 [Compound 10, N-((7-chloro-1H-benzo[d]imidazol-2-yl)methyl)-2-(4-methylpiperazin-1-yl)-8-(thiophen-3-yl)pyrazolo[1,5-a][1,3,5]triazin-4-amine]
9 | 1350 nM | 1240 nM | Cn1cc(-c2cnn3c(NCc4nc5cc(F)c(F)cc5[nH]4)nc(N4CCOCC4)nc23)cn1 [Compound 14, N-((5,6-difluoro-1H-benzo[d]imidazol-2-yl)methyl)-8-(1-methyl-1H-pyrazol-4-yl)-2-morpholinopyrazolo[1,5-a][1,3,5]triazin-4-amine]
10 | 554 nM | 419 nM | Cn1cc(-c2cnn3c(NCc4nc5cc(Cl)c(Cl)cc5[nH]4)nc(N4CCOCC4)nc23)cn1 [Compound 1, N-((5,6-dichloro-1H-benzo[d]imidazol-2-yl)methyl)-8-(1-methyl-1H-pyrazol-4-yl)-2-morpholinopyrazolo[1,5-a][1,3,5]triazin-4-amine]
11 | 377 nM | 227 nM | Clc1cccc2nc(CNc3nc(N4CCOCC4)nc4c(-c5ccsc5)cnn34)[nH]c12 [Compound 9, N-((7-chloro-1H-benzo[d]imidazol-2-yl)methyl)-2-morpholino-8-(thiophen-3-yl)pyrazolo[1,5-a][1,3,5]triazin-4-amine]
12 | 262 nM | 150 nM | FC(F)n1cc(-c2cnn3c(NCc4nc5cc(Cl)c(Cl)cc5[nH]4)nc(N4CCOCC4)nc23)cn1 [Compound 2, N-((5,6-dichloro-1H-benzo[d]imidazol-2-yl)methyl)-8-(1-(difluoromethyl)-1H-pyrazol-4-yl)-2-morpholinopyrazolo[1,5-a][1,3,5]triazin-4-amine]
13 | 196 nM | 61 nM | Fc1cc2nc(CNc3nc(N4CCOCC4)nc4c(-c5ccsc5)cnn34)[nH]c2cc1F [Compound 11, N-((5,6-difluoro-1H-benzo[d]imidazol-2-yl)methyl)-2-morpholino-8-(thiophen-3-yl)pyrazolo[1,5-a][1,3,5]triazin-4-amine]
14 | 44 nM | 44 nM | Fc1cccc2nc(CNc3nc(N4CCOCC4)nc4c(-c5cnn(C(F)F)c5)cnn34)[nH]c12 [Compound 8, 8-(1-(difluoromethyl)-1H-pyrazol-4-yl)-N-((7-fluoro-1H-benzo[d]imidazol-2-yl)methyl)-2-morpholinopyrazolo[1,5-a][1,3,5]triazin-4-amine]
